The results in this text go back to ChEMBL document CHEMBL1130153, “Inhibition of melanoma cell binding to type IV collagen by analogs of cell adhesion regulator” (J Med Chem, 1997).

Where a SMILES comes first, the peptide text is derived from it. [ ]: non-standard residue; d: D form. pY = N[C@@H](Cc1ccc(OP(=O)(O)O)cc1)C(=O)O

Experiment [1] can be described thus: Inhibition of melanoma cell adhesion to type IV collagen. The class given is functional, Homo sapiens.
A short description of experiment [2]: Inhibition of melanoma cell adhesion to type IV collagen;NE=no effect. Type of experiment: functional, Homo sapiens.

As usually defined, the IC50 is the concentration that gives 50% inhibition. High values mean weaker potency, low ones greater potency. The compound `CC[C@H](C)[C@H](NC(=O)[C@H](CCC(=O)O)NC(=O)[C@@H](N)C(C)C)C(=O)N[C@@H](CC(C)C)C(=O)N[C@@H](Cc1ccc(OP(=O)(O)O)cc1)C(=O)O` (H-VEIL[pY]-OH) gave an IC50 in experiment [1] of 10 µM.
For the compound H-VEILY-OH, the midpoint of inhibition in experiment [1], the IC50, lay at 90 µM.
As to H-YLIEV-OH, the IC50 result in experiment [2] is given as “Not Active”.
